Where two headings read alike, the source gives them in different places.

The test system of assay [1] is KRAS G12V mutant NCI-H727 cells. As to the kind of experiment: Proliferation inhibition of NCI-H727 cells, 3D CellTiter-Glo assay (Method B). Type of assay: cell-based, human. The settings on record: Homo sapiens, NCI-H727, 120 h, 3D culture with 0.65% methylcellulose, 5 days, CTG. The protocol:
NCI-H727 cells (Nanjing Kebai Biotechnology Co., Ltd., catalog number CBP60182, adherent, culture medium RPMI-1640+10%FBS (GIBCO, Cat#10091-148)) were cultured at 37°C, 5% CO2, and 95% humidity.
3D cell viability assay: Cells in the logarithmic growth phase were harvested and counted using a platelet counter. Cell viability was assessed using the trypan blue exclusion method to ensure a viability of over 90%. The 3D cell culture medium was prepared by adding 1% MC (methylcellulose, Sigma, Cat#M0512) to RPMI-1640 medium and 10% FBS. The cell concentration was adjusted to approximately 25,000 cells/mL using the 3D medium, and the methylcellulose (MC) content was set to 0.65%. Then, 80 µL of cell suspension was added to each 96-well clear, flat-bottomed, black-walled plate (Greiner, Cat# 655096). The cells in the 96-well plates were cultured overnight at 37°C and 5% CO2.
Drug preparation for IC50 assay: A 5-fold drug solution was prepared using culture medium. 20 µL of the drug solution was added to each well of a 96-well plate seeded with cells to achieve a working concentration of up to 10 µM, with a 3× dilution, and 9 concentrations. 2 replicate wells for each drug concentration were set. The cells in the drug-treated 96-well plates were cultured at 37°C and 5% CO2 for additional 5 days, then CTG assay (CellTiter-Glo® Luminescent Cell Viability Assay (Promega, Cat#G7573)) were performed.
The cell plate was equilibrated to room temperature for 30 minutes and the CTG reagent was thawed. 50 µL of CTG solution was added to each well for detection and the plate was shaken on an orbital shaker for 5 minutes to lyse the cells. The cell plate was then placed at room temperature for 25 minutes to stabilize the cryo-luminescence signal, and the cryo-luminescence value was read (EnVision® multi-plate reader, PerkinElmer#2105).
(§1) Data was analyzed using GraphPad Prism software. The dose-response-inhibition equation was used to fit the data to obtain the dose-response curve, and the IC50 value (nM) was calculated accordingly. [formula]
For orientation: ATP-based viability assays read luminescence as a measure of living cells.

Assay [2] relates to KRAS G12D mutant AGS cells. As to the kind of experiment: Proliferation inhibition of AGS cells, CellTiter-Glo assay. The format is cell-based, human. The settings on record: Homo sapiens, AGS, 72 h, 3 days, CTG; read-out: AGS IC50/nM. The protocol: AGS cells (Nanjing Kebai Biotechnology Co., Ltd., catalog number CBP60476, adherent, culture medium (F12K Nutrient Mixture+10% FBS (GIBCO, Cat#10091-148) were cultured at 37°C, 5% CO2, and 95% humidity at a density of 1500 cells/well. Cells in the logarithmic growth phase were harvested and counted using a Countstar automated cell counter based on the classic trypan blue staining method to ensure cell viability was above 90%. The cell concentration was adjusted, and 80 µL of cell suspension was added to each 96-well clear flat-bottomed, black-walled plate (Greiner, Cat# 655090). The cells in the 96-well plates were then cultured at 37°C and 5% CO2.
Drug preparation for IC50 assay: A 5-fold drug solution was prepared using culture medium. 20 µL of the drug solution was added to each well of a 96-well plate seeded with cells to achieve a working concentration of up to 10 µM, with a 3 × dilution, and a total of 9 concentrations. 2 replicate wells for each drug concentration were set. The cells in the drug-treated 96-well plates were cultured at 37°C and 5% CO2 for additional 3 days and then CTG assay were performed.
The cell plate was equilibrated to room temperature for 30 minutes and the CTG reagent (CellTiter-Glo® Luminescent Cell Viability Assay (Promega, Cat# G7573)) was thawed. 50 µL of CTG solution was added to each well and the plate was shaken on an orbital shaker for 2 minutes to lyse the cells. The cell plate was placed at room temperature for 10 minutes to stabilize the cryo-luminescence signal and the cryo-luminescence value was read (EnVision® Multifunctional microplate reader, PerkinElmer #2105).
as §1

[3] abbreviates: Method B, read-out: NCI-H727 IC50/nM.

Regarding `CN1CC[C@H](C(F)F)[C@](C)(COc2nc(N3CCCn4nc(C(=O)N(C)C)cc4C3)c3cc(C(F)(F)F)c(-c4cccc5sc(N)c(C#N)c45)c(F)c3n2)C1` [Example 7, 5-(7-(2-Amino-3-cyanobenzo[b]thiophene-4-yl)-2-(((3S,4S)-4-(difluoromethyl)-1,3-dimethylpiperidine-3-yl)methoxy)-8-fluoro-6-(trifluoromethyl)quinazoline-4-yl)-N,N-dimethyl-5,6,7,8-tetrahydro-4H-pyrazolo[1,5-a][1,4]diazepine-2-formamide], the figures for the IC50 in assay [1] (setting [3]) and in assay [2] were 13.1 nM and 6.7 nM, respectively.

With `CN1CC/C(=C\F)[C@](C)(COc2nc(N3CCCn4nc(C(=O)N(C)C)cc4C3)c3cc(C(F)(F)F)c(-c4cccc5sc(N)c(C#N)c45)c(F)c3n2)C1` [Example 8, 5-(7-(2-Amino-3-cyanobenzo[b]thiophene-4-yl)-8-fluoro-2-(((S,E)-4-(fluoromethylene)-1,3-dimethylpiperidine-3-yl)methoxy)-6-(trifluoromethyl)quinazoline-4-yl)-N,N-dimethyl-5,6,7,8-tetrahydro-4H-pyrazolo[1,5-a][1,4]diazepine-2-formamide], the IC50 in assay [1] (setting [3]) amounted to 21.3 nM; in assay [2], 8.1 nM.

For the molecule `CN1CC/C(=C\F)[C@](C)(COc2nc(N3CCOC[C@@](C)(O)C3)c3cc(C(F)(F)F)c(-c4ccc(F)c5sc(N)c(C#N)c45)c(F)c3n2)C1` [Example 16], the IC50 in assay [1] (read-out: NCI-H727 IC50/nM, Method B) turned out to be 5 nM; in assay [2], 13.2 nM.

For `[2H]C([2H])([2H])N1CC[C@H](C(F)F)[C@](C)(COc2nc(N3CCCn4nc(C(=O)N(C)C)cc4C3)c3cc(C(F)(F)F)c(-c4c(F)ccc5sc(N)c(C#N)c45)c(F)c3n2)C1` [Example 67, 5-(7-(2-Amino-3-cyano-5-fluorobenzo[b]thiophene-4-yl)-2-(((3S,4S)-4-(difluoromethyl)-3-methyl-1-(methyl-d3)piperidine-3-yl)methoxy)-8-fluoro-6-(trifluoromethyl)quinazoline-4-yl)-N,N-dimethyl-5,6,7,8-tetrahydro-4H-pyrazolo[1,5-a][1,4]diazepine-2-formamide], the IC50 in assay [1] (setting [3]) was 6.3 nM; in assay [2], 1.75 nM.

On to `[2H]C([2H])([2H])N1CC/C(=C\F)[C@](C)(COc2nc(N3CCCn4nc(C(=O)N(C)C)cc4C3)c3cc(C(F)(F)F)c(-c4c(F)ccc5sc(N)c(C#N)c45)c(F)c3n2)C1` [Example 68, 5-(7-(2-amino-3-cyano-5-fluorobenzo[b]thiophene-4-yl)-8-fluoro-2-(((S,E)-4-(fluoromethylene)-3-methyl-1-(methyl-d3)piperidine-3-yl)methoxy)-6-(trifluoromethyl)quinazoline-4-yl)-N,N-dimethyl-5,6,7,8-tetrahydro-4H-pyrazolo[1,5-a][1,4]diazepine-2-formamide], for which the IC50 was determined as 6.4 nM in assay [1] (setting [3]) and 1.9 nM in assay [2].

Take `[2H]C([2H])([2H])N1CC[C@H](C(F)F)[C@](C)(COc2nc(N3CCOC[C@@](C)(O)C3)c3cc(Cl)c(-c4cccc5sc(N)c(C#N)c45)c(F)c3n2)C1` [Example 83]: the IC50 was 20.2 nM in assay [1] (setting [3]) and 38.2 nM in assay [2].

Regarding `[2H]C([2H])([2H])N1CC/C(=C\F)[C@](C)(COc2nc(N3CCOC[C@@](C)(O)C3)c3cc(Cl)c(-c4cccc5sc(N)c(C#N)c45)c(F)c3n2)C1` [Example 84, 2-Amino-4-(6-chloro-8-fluoro-2-(((S,E)-4-(fluoromethylene)-3-methyl-1-(methyl-d3)piperidine-3-yl)methoxy)-4-((S)-6-hydroxy-6-methyl-1,4-oxazacycloheptane-4-yl)quinazoline-7-yl)benzo[b]thiophene-3-carbonitrile], the figures for the IC50 in assay [1] (setting [3]) and in assay [2] were 77.7 nM and 59 nM, respectively.

With `[2H]C([2H])([2H])N1CC[C@H](C(F)F)[C@](C)(COc2nc(N3CCOC[C@@](C)(O)C3)c3cc(C#N)c(-c4cccc5sc(N)c(C#N)c45)c(F)c3n2)C1` [Example 91], the IC50 was 48.5 nM in assay [1] (setting [3]) and 84.7 nM in assay [2].

Take `[2H]C([2H])([2H])N1CC[C@H](C(F)F)[C@](C)(COc2nc(N3CCCn4nc(C(=O)N(C)C)cc4C3)c3cc([N+](=O)[O-])c(-c4cccc5sc(N)c(C#N)c45)c(F)c3n2)C1` [Example 95, 5-(7-(2-Amino-3-cyanobenzo[b]thiophene-4-yl)-2-(((3S,4S)-4-(difluoromethyl)-3-methyl-1-(methyl-d3)piperidine-3-yl)methoxy)-8-fluoro-6-nitroquinazoline-4-yl)-N,N-dimethyl-5,6,7,8-tetrahydro-4H-pyrazolo[1,5-a][1,4]diazepine-2-formamide]: the IC50 in assay [1] (setting [3]) was found to be 36.1 nM; in assay [2], 10.5 nM.

As for `[2H]C([2H])([2H])N1CC/C(=C\F)[C@](C)(COc2nc(N3CCCn4nc(C(=O)N(C)C)cc4C3)c3cc([N+](=O)[O-])c(-c4cccc5sc(N)c(C#N)c45)c(F)c3n2)C1` [Example 98], the IC50 in assay [1] (setting [3]) worked out at 27.1 nM; in assay [2] it was 15.8 nM.

As for `[2H]C([2H])([2H])N1CCC(C(F)F)C(C)(COc2nc(N3CCOCC(C)(O)C3)c3cc(C(F)(F)F)c(-c4ccc(F)c5sc(N)c(C#N)c45)c(F)c3n2)C1` (stereo not shown) [Example 99], the IC50 in assay [1] (setting [3]) was 2.4 nM; in assay [2], 13.1 nM.

For `CN1CC/C(=C\F)[C@](C)(COc2nc(N3CCCn4nc(C(=O)N(C)C)cc4C3)c3cc(C(F)F)c(-c4cccc5sc(N)c(C#N)c45)c(F)c3n2)C1` [Example 100], the figures for the IC50 in assay [1] (setting [3]) and in assay [2] were 47.7 nM and 20 nM, respectively.

In the case of `CN1CCC(=CF)C(C)(COc2nc(N3CCC(C#N)C(O)C3)c3cc(C(F)(F)F)c(-c4cccc5sc(N)c(C#N)c45)c(F)c3n2)C1` (stereo not shown) [Example 105], the figures for the IC50 in assay [1] (setting [3]) and in assay [2] were 26.9 nM and 338 nM, respectively.

With `CN1CC/C(=C\F)[C@](C)(COc2nc(N3CCCn4nc(C(=O)N(C)C)cc4C3)c3cc(/C=C/F)c(-c4cccc5sc(N)c(C#N)c45)c(F)c3n2)C1` [Example 111], the results for the IC50 in assay [1] (setting [3]) and in assay [2] were 54.7 nM and 25.6 nM, respectively.

For `CN1CC/C(=C\F)[C@](C)(COc2nc(N3CCCn4nc(C(=O)N(C)C)cc4C3)c3cc(/C=C\F)c(-c4cccc5sc(N)c(C#N)c45)c(F)c3n2)C1` [Example 112], the IC50 in assay [1] (setting [3]) came to 20.2 nM; in assay [2], 9.9 nM.

Turning to `CN1CC/C(=C\F)[C@](C)(COc2nc(N3CCCN4C(=O)OCC4C3)c3cc(C(F)(F)F)c(-c4cccc5sc(N)c(C#N)c45)c(F)c3n2)C1` (stereo partly shown) [Example 113], the IC50 was 168 nM in assay [1] (setting [3]) and 584 nM in assay [2].

As for `CNC(=O)c1cc2n(n1)CCCN(c1nc(OC[C@]3(C)CN(C)CC/C3=C\F)nc3c(F)c(-c4cccc5sc(N)c(C#N)c45)c(C(F)(F)F)cc13)C2` [Example 118], the results for the IC50 in assay [1] (setting [3]) and in assay [2] were 35.5 nM and 12.8 nM, respectively.

Take `CN1CC/C(=C\F)[C@](C)(COc2nc(N3CCCn4nc(C(=O)N(C)C)c(N)c4C3)c3cc(C(F)(F)F)c(-c4cccc5sc(N)c(C#N)c45)c(F)c3n2)C1` [Example 120]: the IC50 in assay [1] (setting [3]) came to 29.8 nM; in assay [2] it was 10.3 nM.

For `CN1CC/C(=C\F)[C@](C)(COc2nc(N3CCCn4nc(N)c(C(=O)N(C)C)c4C3)c3cc(C(F)(F)F)c(-c4cccc5sc(N)c(C#N)c45)c(F)c3n2)C1` [Example 121], the IC50 in assay [1] (setting [3]) was found to be 439 nM; in assay [2] it was 179 nM.

For `CCc1cc2c(N3Cc4cc(C(=O)N(C)C)nn4CC[C@@H]3C)nc(OC[C@]3(C)CN(C)CC/C3=C\F)nc2c(F)c1-c1cccc2sc(N)c(C#N)c12` [Example 165A], the results for the IC50 in assay [1] (setting [3]) and in assay [2] were 3.6 nM and 3.2 nM, respectively.
